Data on five compounds can be found in patent US9994556B2, “Triazole modified coumarin and biphenyl amide-based HSP90 inhibitors” (THE UNIVERSITY OF KANSAS, priority 2014, dated 2018).

For one assay, the system named is LNCaP cells. In words: Sulforhodamine B assay, LNCaP. It is filed as cell-based. The note with it: Homo sapiens, mean ± standard deviation. In short, it runs like this: (§1)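 Cells treated over a 10-point dose range, fixed with trichloroacetic acid, stained with sulforhodamine B, solubilised in 10 mM Tris, absorbance at 565 nm. Growth inhibition computed against time-zero and untreated wells; curves fitted by sigmoidal non-linear regression.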

The next assay has as its system JMAR cell line. The experiment in a line: Promega CellTiter-Glo (CTG) luminescent assay, JMAR. To be noted: 72 hr, mean ± standard deviation. It is filed as cell-based. In short, it runs like this: (§2)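 Antiproliferative activity measured after 72 hr compound treatment by CellTiter-Glo luminescence (ATP-based viability). Selected data cross-checked by MTS/PMS viability assay.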

The test system of the next assay is PC3-MM2 cells. In words: Sulforhodamine B assay, PC3-MM2. It is filed as cell-based. The note with it: Homo sapiens, PC3MM2, mean ± standard deviation. In short, it runs like this: as §1
In the next assay the test system is SKBr3 cells. In words: MTS/PMS cell viability assay, SKBr3. The note with it: Homo sapiens, SK-BR-3. It is filed as cell-based. In short, it runs like this: (§3)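 Cells seeded at 2000/well in Advanced DMEM/F12 with 10% FBS, attached overnight, then exposed to compound (1% DMSO final) for 72 hr at 37° C. Viable cells counted by MTS/PMS, normalised to 1% DMSO as 100%; IC50 from triplicate experiments.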

A further assay deals with MDA1986 cell line. In words: Promega CellTiter-Glo (CTG) luminescent assay, MDA1986. It is filed as cell-based. The note with it: 72 hr, mean ± standard deviation, read-out: IC50 MDA1986. In short, it runs like this: as §2
The test system of the next assay is MCF-7 cells. In words: MTS/PMS cell viability assay, MCF-7. It is filed as cell-based. The note with it: Homo sapiens, MCF7. In short, it runs like this:
as §3

The subject of a further assay is MDA-MB-468LN cell line. The experiment in a line: Promega CellTiter-Glo (CTG) luminescent assay, MDA-MB-468LN. To be noted: Homo sapiens, 72 hr, mean ± standard deviation. The assay is classed as cell-based. In short, it runs like this: as §2
Assay [1] deals with SKBr3, MDA-MB-468LN, MCF-7, MDA1986, JMAR, PC3-MM2 and LNCaP cell lines. The experiment in a line: Antiproliferative activity against the panel of cancer cell lines. The assay is classed as cell-based. To be noted: for activity against all cell lines tested: panel of seven cancer cell lines. The procedure:
a) MTS/PMS Cell Viability Assay (SKBr3 and MCF-7 Cells)
Cells were maintained in a 1:1 mixture of Advanced DMEM/F12 (Gibco) supplemented with non-essential amino acids, L-glutamine (2 mM), streptomycin (500 μg/mL), penicillin (100 units/mL), and 10% FBS. Cells were grown to confluence in a humidified atmosphere (37° C., 5% CO2), seeded (2000/well, 100 μL) in 96-well plates, and allowed to attach overnight. Compound at varying concentrations in DMSO (1% DMSO final concentration) was added, and cells were returned to the incubator for 72 hr. At 72 hr, the number of viable cells was determined using an MTS/PMS cell proliferation kit (Promega) per the manufacturer's instructions. Cells incubated in 1% DMSO were used at 100% proliferation, and values were adjusted accordingly. IC50 values were calculated from separate experiments performed in triplicate using GraphPad Prism. […]
b) Promega CellTiter-Glo (CTG) Luminescent Assay
Antiproliferative activities against MDA-MB-468LN, MDA1986 and JMAR cell lines were performed with 384-well white plates with the Promega CellTiter-Glo (CTG) luminescent assay with 72 hr compound treatment. Data analysis was performed using GraphPad Prism. Selected data were further checked with MTS/PMS cell viability assay with 96-well plates, which correlated well with Promega CellTiter-Glo luminescent assay. […]
c) Sulforhodamine B Assay
The sulforhodamine B assay is used to measure drug-induced cytotoxicity and cell proliferation for large-scale drug-screening applications. Its principle is based on the ability of the protein dye sulforhodamine B to bind electrostatically on pH dependent protein basic amino acid residues of trichloroacetic acid-fixed cells. The aim is to evaluate samples showing selective growth inhibition or cell killing of particular tumor cell lines.
The SRB assay is performed by treating cells using a 10 point dose-response curve. The cells are fixed with trichloroacetic acid solution and stained with sulforhodamine B dye. The stained cells are then solubilized with 10 mM Tris buffer and read for absorbance at 565 nm.

The test system of assay [2] is Hsp90 client proteins Her2, Akt, Raf-1 and CDK6. In words: Western blot analyses of Hsp90 client protein degradation in MCF-7 cell lysates. It is filed as cell-based, human. The note with it: for client proteins Her2, Akt, Raf-1 and CDK6 (Western blot, concentration series) / Hsp90 client proteins Her2, Akt and Raf-1 (Western blot): 24 h; for client proteins Her2, Akt, Raf-1 and CDK6 (Western blot, concentration series): increasing concentrations; for Hsp90 client proteins Her2, Akt and Raf-1 (Western blot): MCF-7 lysates, L = 1/2 and H = 5 times the antiproliferative IC50. The procedure: (§4) MCF-7 cells were cultured as described above and treated with various concentrations of drug, Geldanamycin (GDA or G) in DMSO (1% DMSO final concentration), or vehicle (DMSO) for 24 hr. Cells were harvested in cold PBS and lysed in RIPA lysis buffer containing 1 mM PMSF, 2 mM sodium orthovanadate, and protease inhibitors on ice for 1 hr. Lysates were clarified at 14000 g for 10 min at 4° C. Protein concentrations were determined using the Pierce BCA protein assay kit per the manufacturer's instructions. Equal amounts of protein (15 μg) were electrophoresed under reducing conditions, transferred to a PVDF membrane, and immunoblotted with the corresponding specific antibodies. Membranes were incubated with an appropriate horseradish peroxidase-labeled secondary antibody, developed with a chemiluminescent substrate, and visualized.

For assay [3], the system named is heat shock proteins Hsp27, Hsp70 and Hsp90. In words: Western blot analyses of heat shock proteins in MCF-7 cell lysates. To be noted: MCF-7 cells, 24 h, increasing concentrations of 5f. The assay is classed as cell-based, human. The procedure:
as §4

The test system of another assay is Hsp90 C-terminus. In words: Proteolytic fingerprinting assay of Hsp90 from rabbit reticulocyte lysate. The assay is classed as binding. To be noted: band not detected for vehicle control. The procedure:
e) Proteolytic Fingerprinting Assay
Rabbit reticulocyte (Green Hectares) incubated under conditions of protein synthesis at 30° C. in the presence of compound or vehicle (1% DMSO) for 10 minutes. Each reaction mixture contained 66.6% rabbit reticulocyte and 33.3% ATP regenerating system (10 mM creatine phosphate and 20 μg mL^−1 creatine phosphokinase) and a final concentration of 75 mM KCl. Each reaction mixture contained the indicated amount of compound. After incubating, the samples were immediately placed on ice and the indicated amount of TPCK-treated trypsin (Worthington) was added to each sample. The samples digested on ice for an additional 6 minutes and the reactions were quenched by the addition of Laemmli sample buffer followed by immediate boiling. Equal amounts of each sample were electrophoresed under reducing conditions (12% acrylamide gels), transferred to PVDF, and immunoblotted with an antibody specific to the Hsp90 C-terminus. Membranes were incubated with an appropriate horseradish peroxidase-labeled secondary antibody, developed with a chemiluminescent substrate, and visualized.

[4] abbreviates: Table 1 coumarin-based triazoles.
[5] abbreviates: Table 1 coumarin-based triazoles, 72 hr, mean ± standard deviation, at least two experiments in triplicate, read-out: IC50 SKBr3.
[6] abbreviates: Table 1 coumarin-based triazoles, 72 hr, mean ± standard deviation, read-out: IC50 MCF-7.
The mark [7] stands for this setting: Table 2 biphenyl triazole analogues.
[8] abbreviates: Table 2 biphenyl triazole analogues, 72 hr, mean ± standard deviation, read-out: IC50 SKBr3.
The mark [9] stands for this setting: Table 2 biphenyl triazole analogues, 72 hr, mean ± standard deviation, read-out: IC50 MCF-7.
The mark [10] stands for this setting: read-out: IC50 against MCF-7 cell line.

Structures are written as SMILES. “Also recorded” adds a separate entry of the source. Read-outs that look alike come from different tables or passages of the source.

Take `Cc1c(OC2CCN(C)CC2)ccc2cc(NC(=O)c3cn(-c4ccccc4)nn3)c(=O)oc12` [4a, N-(8-methyl-7-((1-methylpiperidin-4-yl)oxy)-2-oxo-2H-chromen-3-yl)-1-phenyl-1H-1,2,3-triazole-4-carboxamide]: the IC50 was determined as 4720 ± 710 nM in the assay with LNCaP cells (setting [4]); 2300 ± 400 nM in the assay on JMAR cell line (setting [4]); 2690 nM with PC3-MM2 cells (setting [4]); 940 ± 20 nM with SKBr3 cells (setting [5]); 1500 ± 3400 nM in the assay with MDA1986 cell line (setting [4]); 1330 ± 130 nM in the assay on MCF-7 cells (setting [6]). The midpoint of inhibition in the assay on MDA-MB-468LN cell line (setting [4]), the IC50, lay at 1100 ± 210 nM. Besides, in [1], the “activity against all cell lines tested” value is reported as “low micromolar”.

For the compound `Cc1c(OC2CCN(C)CC2)ccc2cc(NC(=O)c3cn(Cc4ccccc4)nn3)c(=O)oc12` [4b, 1-Benzyl-N-(8-methyl-7-((1-methylpiperidin-4-yl)oxy)-2-oxo-2H-chromen-3-yl)-1H-1,2,3-triazole-4-carboxamide], the IC50 was found to be 15500 ± 8750 nM in the assay on LNCaP cells (setting [4]); 2100 ± 230 nM in the assay on JMAR cell line (setting [4]); 9800 ± 13500 nM with PC3-MM2 cells (setting [4]); 990 ± 80 nM in the assay with SKBr3 cells (setting [5]); 1600 ± 210 nM in the assay with MDA1986 cell line (setting [4]); 1080 nM in the assay with MCF-7 cells (setting [6]). The compound also yielded an IC50 in the assay with MDA-MB-468LN cell line (setting [4]) of 2400 nM. The “activity against all cell lines tested” value in assay [1] is “low micromolar”.

`CN1CCC(Oc2ccc(-c3ccc(NC(=O)c4cn(Cc5ccccc5)nn4)cc3)cc2)CC1` [5b, 1-Benzyl-N-(4′-((1-methylpiperidin-4-yl)oxy)-[1,1′-biphenyl]-4-yl)-1H-1,2,3-triazole-4-carboxamide]: the IC50 came to 650 ± 540 nM in the assay with LNCaP cells (setting [7]); 500 ± 60 nM in the assay on JMAR cell line (setting [7]); 550 ± 460 nM in the assay on PC3-MM2 cells (setting [7]); 170 ± 20 nM in the assay on SKBr3 cells (setting [8]); 170 nM in the assay with SKBr3 cells (read-out: IC50 against SKBr3 cell line); 280 ± 100 nM in the assay on MDA1986 cell line (setting [7]). Moreover, the results for the half-inhibitory concentration (IC50) in the assay on MCF-7 cells (setting [9]), in the assay with MCF-7 cells (setting [10]) and in the assay on MDA-MB-468LN cell line (setting [7]) were 500 ± 20 nM, 500 nM and 340 ± 70 nM, respectively. Further, the “client proteins Her2, Akt, Raf-1 and CDK6 (Western blot, concentration series)” value in [2] (MCF-7 cells) was “degraded in a concentration-dependent manner”. Moreover, the “Hsp90 client proteins Her2, Akt and Raf-1 (Western blot)” value in assay [2] is “decreased; also recorded: Clear degradation”. Moreover, the “times more potent than 5a against all the cell lines evaluated” value in [1] (5b compared with 5a) is recorded as 2.5-8 times.

Turning to `Cc1ccc(Cn2cc(C(=O)Nc3ccc(-c4ccc(OC5CCN(C)CC5)cc4)cc3)nn2)cc1` [5f, 1-(4-Methylbenzyl)-N-(4′-((1-methylpiperidin-4-yl)oxy)-[1,1′-biphenyl]-4-yl)-1H-1,2,3-triazole-4-carboxamide], the IC50 with LNCaP cells (setting [7]) is 200 ± 40 nM; in the assay with JMAR cell line (setting [7]), 420 ± 70 nM; in the assay with PC3-MM2 cells (setting [7]), 360 ± 40 nM; in the assay with SKBr3 cells (setting [8]), 170 ± 30 nM; with MDA1986 cell line (setting [7]), 360 ± 50 nM; in the assay with MCF-7 cells (setting [9]), 120 ± 10 nM. Besides, the IC50 was found to be 120 nM in the assay on MCF-7 cells (setting [10]) and 410 ± 260 nM in the assay on MDA-MB-468LN cell line (setting [7]). For the same compound, in [2] (MCF-7 cells), the “client proteins Her2, Akt, Raf-1 and CDK6 (Western blot, concentration series)” value is “degraded in a concentration-dependent manner”. Besides, the “concentration able to deplete Hsp90 client proteins as well as Geldanamycin at 500 nM” value in [2] (MCF-7 cells, Western blot) was determined as 1 µM. Further, the “Hsp90 client proteins Her2, Akt and Raf-1 (Western blot)” value in assay [2] was “decreased; also recorded: Clear degradation”. Moreover, the “heat shock proteins Hsp27, Hsp70, or Hsp90 levels” value in [3] is listed as “No increase”. In the assay with Hsp90 C-terminus (1 mM compound), the “50 kDa Hsp90 fragment on trypsin proteolysis (C-terminal Hsp90 antibody)” value came to 50 kDa band was detected.

For the compound `CO[C@@H]1[C@@H](OC(N)=O)[C@@H](O)[C@H](Oc2ccc3c(O)c(NC(=O)c4ccc(O)c(CC=C(C)C)c4)c(=O)oc3c2C)OC1(C)C` [novobiocin, reference compound], in the assay on Hsp90 C-terminus (5 mM compound), the “50 kDa Hsp90 fragment on trypsin proteolysis (C-terminal Hsp90 antibody)” value is on record as 50 kDa band was detected.
